Measurements taken from PubChem BioAssay AID1845204 (Molecular Pharmacology Branch, DTP, NCI, 2023).
Where “and” joins values, the source holds several entries; their conditions need not be identical. Identical values can stand only once.

Tested on: HSSY-II tumor spheroid viability
Experiment: Anticancer human tumor HSSY-II cell line growth inhibition;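 further: spheroids exposed to compounds for seven days before reading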;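 on viability, T/C: percent of DMSO vehicle control viability so 100% = untreated level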
Settings: spheroids with HUVEC and MSC; for viability, T/C: stronger effect = lower value
From the text: Multicellular complex tumor spheroid response to DNA repair inhibitors in combination with DNA-damaging drugs
This study explores the anticancer activities of DNA-damaging drugs and inhibitors of DNA damage repair, both as single agents and in combinations. Complex tumor spheroids comprised of malignant cells, endothelial cells and mesenchymal stem cells served as an in vitro model for human solid tumors. This model system incorporates physiologically relevant features and patient-derived or established malignant cell lines with clinically relevant genetic alterations from many tumor types. Twenty-six patient-derived or established malignant cell lines were evaluated representing sarcoma, melanoma, small cell lung cancer (SCLC), non-small cell lung cancer (NSCLC), as well as bladder, ovarian and pancreatic cancers. The concentration ranges selected for each drug and investigational agent were based upon clinically achievable concentrations if the clinical Cmax of the agent was known.
Compounds. The drugs and compounds olaparib (NSC753686), talazoparib (NSC767125), berzosertib (NSC777718), elimusertib (NSC800525), nedisertib (NSC802822), VX-984 (NSC792969), AZD-1390 (NSC803789), temozolomide (NSC362856), topotecan (NSC609699), trabectedin (NSC813783), staurosporine (NSC755774), and gemcitabine (NSC613327) were obtained from the National Cancer Institute (NCI) Developmental Therapeutics Program Chemical Repository. The FDA-approved anticancer drug set is available from the Developmental Therapeutics Program at https://dtp.cancer.gov/organization/dscb/obtaining/available_plates.htm. […] The stock solutions were prepared in dimethyl sulfoxide (DMSO, Sigma-Aldrich, St. Louis, MO, cat. D2650) at 400-fold the tested concentration and stored at -70 degrees C. Prior to their use, the stock solutions were diluted in fresh medium and the final DMSO concentration in the assay was 0.25% (v/v). All drugs and investigational agents were tested over a range starting from a high concentration at or near the clinical Cmax and decreasing in half-log increments. If the clinical Cmax for an agent had not been determined, the highest concentration tested was 10 microM.
Cell Lines. The patient-derived cancer cell (PDC) lines: 156681-154-R-J1-PDC, 283228-195-R-J1-PDC, 287954-098-R-J1-PDC, 292921-168-R-J2-PDC, 349418-098-R-PDC, 425362-245-T-J1-PDC, 556581-035-R-J1-PDC, and BL0293-F563-PDC were received from the NCI Patient-Derived Models Repository (PDMR, https://pdmr.cancer.gov). The established cell lines HS-SY-2 (RRID:CVCL_8719), MPNST, and SYO-1 (RRID:CVCL_7146) were obtained from the Sloan Kettering Institute. The alveolar soft parts sarcoma cell line ASPS-1 (RRID:CVCL_S738) was established at the NCI and grown from internal seed stocks. The following established cell lines were purchased from the American Type Culture Collection (ATCC, Manassas, VA): G-401 (ATCC, cat. CRL-1441, RRID:CVCL_0270), SW982 (ATCC, cat. HTB-93, RRID:CVCL_1734), VA-ES-BJ (ATCC, cat. CRL-2138, RRID:CVCL_1785), NCI-H719 (ATCC, cat. CRL-5837, RRID:CVCL_1582), NCI-H196 (ATCC, cat. CRL-5823, RRID:CVCL_1509), NCI-H841 (ATCC, cat. CRL-5845, RRID:CVCL_1595), NCI-H1618 (ATCC, cat. CRL-5879, RRID:CVCL_1480), NCI-H1876 (ATCC, cat. CRL-5902, RRID:CVCL_1503), DMS 114 (ATCC, cat. CRL-2066; RRID:CVCL_1174), NCI-H211 (ATCC, cat. CRL-5824; RRID:CVCL_1529), and SW 1271 (ATCC, cat. CRL-2177, RRID:CVCL_1716). The small cell lung cancer cell line COR-L88 was purchased from Sigma-Aldrich (cat. 92031917-1VL, RRID:CVCL_1141). The non-small cell lung cancer cell lines NCI-H226 (RRID:CVCL_1544) and NCI-H322M (RRID:CVCL_1557) were established at the NCI and grown from internal seed stocks. Pooled donor human umbilical vein endothelial cells (HUVEC, Lonza, cat. CC-2519) and human mesenchymal stem cells (hMSC, Lonza, cat. PT-2501) were purchased from Lonza (Walkersville, MD).
Cell Culture. All cells were maintained in an incubator at 37 degrees C and 5% CO2 with 95% humidity. […]

[1] = curve of first compound, second compound 30 pM
[2] = curve of first compound, second compound 94.9 pM
[3] = curve of first compound, second compound 0.0003 µM
[4] = curve of first compound, second compound 0.000949 µM
[5] = curve of first compound, second compound 0.003 µM
[6] = second compound 30 pM, first compound 0.0316 µM
[7] = second compound 30 pM, first compound 0.1 µM
[8] = second compound 30 pM, first compound 0.316 µM
[9] = second compound 30 pM, first compound 1 µM
[10] = second compound 30 pM, first compound 3.16 µM
[11] = second compound 30 pM, first compound 10 µM
[12] = second compound 94.9 pM, first compound 0.0316 µM
[13] = second compound 94.9 pM, first compound 0.1 µM
[14] = second compound 94.9 pM, first compound 0.316 µM
[15] = second compound 94.9 pM, first compound 1 µM
[16] = second compound 94.9 pM, first compound 3.16 µM
[17] = second compound 94.9 pM, first compound 10 µM
[18] = second compound 0.0003 µM, first compound 0.0316 µM
[19] = second compound 0.0003 µM, first compound 0.1 µM
[20] = second compound 0.0003 µM, first compound 0.316 µM
[21] = second compound 0.0003 µM, first compound 1 µM
[22] = second compound 0.0003 µM, first compound 3.16 µM
[23] = second compound 0.0003 µM, first compound 10 µM
[24] = second compound 0.000949 µM, first compound 0.0316 µM
[25] = second compound 0.000949 µM, first compound 0.1 µM
[26] = second compound 0.000949 µM, first compound 0.316 µM
[27] = second compound 0.000949 µM, first compound 1 µM
[28] = second compound 0.000949 µM, first compound 3.16 µM
[29] = second compound 0.000949 µM, first compound 10 µM
[30] = second compound 0.003 µM, first compound 0.0316 µM
[31] = second compound 0.003 µM, first compound 0.1 µM
[32] = second compound 0.003 µM, first compound 0.316 µM
[33] = second compound 0.003 µM, first compound 1 µM
[34] = second compound 0.003 µM, first compound 3.16 µM
[35] = second compound 0.003 µM, first compound 10 µM

SMILES | IC50 [1] [nM] | IC50 [2] [nM] | IC50 [3] [nM] | IC50 [4] [nM] | IC50 [5] [nM] | viability, T/C [6] [%] | viability, T/C [7] [%] | viability, T/C [8] [%] | viability, T/C [9] [%] | viability, T/C [10] [%] | viability, T/C [11] [%] | viability, T/C [12] [%] | viability, T/C [13] [%] | viability, T/C [14] [%] | viability, T/C [15] [%] | viability, T/C [16] [%] | viability, T/C [17] [%] | viability, T/C [18] [%] | viability, T/C [19] [%] | viability, T/C [20] [%] | also measured
[2H]c1nc(C)nc([2H])c1-c1cc(NC[C@@H](C)c2cccc3c(C(=O)NC)ccnc23)ncn1 + COc1cc2c(cc1O)CCNC21CSC2c3c(OC(C)=O)c(C)c4c(c3C(COC1=O)N1C(O)C3Cc5cc(C)c(OC)c(O)c5C(C21)N3C)OCO4 | > 10000 | > 10000 | < 31.6 | < 31.6 | < 31.6 | 98 | 93.5 | 95.2 | 99.1 | 94.2 | 86.2 | 86.5 | 89 | 92.5 | 88.4 | 92.1 | 78.3 | 16.1 | 16 | 17.8 | viability, T/C [21]: 14.6%; viability, T/C [22]: 9.62%; viability, T/C [23]: 12%; viability, T/C [24]: 2.64%; viability, T/C [25]: 1.58%; viability, T/C [26]: 3.44%; viability, T/C [27]: 3.49%; viability, T/C [28]: 2.59%; viability, T/C [29]: 1.53%; viability, T/C [30]: 0.15%; viability, T/C [31]: 0.14%; viability, T/C [32]: 0.14%; viability, T/C [33]: 0.14%; viability, T/C [34]: 1.6%; viability, T/C [35]: 0.24%
COc1ccc([C@@H](O)c2cc(-c3ncnc4cc(N5CCOCC5)ccc34)c(F)cc2Cl)nn1 |  |  |  |  |  |  |  |  |  |  |  |  |  |  |  |  |  |  |  |  | viability, T/C (compound 0.0316 µM): 99% (2×) and 100%; viability, T/C (compound 0.1 µM): 108% and 97.5% and 98%; viability, T/C (compound 0.316 µM): 98.5% and 89.3% and 86.9%; viability, T/C (compound 1 µM): 67.9% and 60.5% and 66.9%; viability, T/C (compound 3.16 µM): 40.8% and 40.2% and 43.4%; viability, T/C (compound 10 µM): 15.2% and 20.4% and 21.2%; IC50 (curve of compound): 2100 nM and 1830 nM and 2260 nM
COc1cc(C)[nH]c(=O)c1CN1CCc2c(Cl)cc(C(OC)C3COC3)c(Cl)c2C1=O (configuration not stated) + COc1cc2c(cc1O)CCNC21CSC2c3c(OC(C)=O)c(C)c4c(c3C(COC1=O)N1C(O)C3Cc5cc(C)c(OC)c(O)c5C(C21)N3C)OCO4 | > 10000 | > 10000 | < 31.6 | < 31.6 | < 31.6 | 132 | 117 | 108 | 92.5 | 86 | 90.1 | 121 | 99.9 | 97.8 | 89.7 | 81.4 | 70.8 | 20.1 | 15.3 | 19.4 | viability, T/C [21]: 23.8%; viability, T/C [22]: 21.3%; viability, T/C [23]: 19.3%; viability, T/C [24]: 3.35%; viability, T/C [25]: 3.82%; viability, T/C [26]: 3.22%; viability, T/C [27]: 4.24%; viability, T/C [28]: 4.87%; viability, T/C [29]: 4.39%; viability, T/C [30]: 0.33%; viability, T/C [31]: 0.35%; viability, T/C [32]: 0.32%; viability, T/C [33]: 0.3%; viability, T/C [34]: 0.32%; viability, T/C [35]: 0.52%
